Converted amounts (≈) assume the structure as drawn. Read-outs that look alike come from different tables or passages of the source.
What was measured:
Candida rugosa = test: Broth microdilution antifungal MIC (NCCLS); type: cell-based; conditions: Candida rugosa 94-10, RPMI-1640, 35° C., 24-48 hours
Description: (§1) The antifungal activity of Hygroscopene A is determined by a broth microdilution method as recommended by the National Committee for Clinical Laboratory Standard (NCCLS) (1, 2). Sterile, disposable, multiwell plates (96 U-shaped wells) containing serial dilutions of Hygroscopene A and a control drug (Amphotericin B) are prepared in a 100 μl volume with RPMI-1640 broth supplemented with 0.2% sodium bicarbonate and […] [3-(N-morpholino) propanesulfonic acid] buffer. RPMI-1640 is a completely synthetic medium that supports the growth of most fungi. Antimicrobial agent concentrations ranged from 0.06-64 μg/ml. Five colonies from 24-hour old yeast culture or 48-hour old filamentous fungi culture were suspended in 0.85% saline. The suspensions are diluted in RPMI-1640 broth and inoculated in to plates (100 μl/well) containing antimicrobial agents. The final inocula of yeast or fungi are 0.5-2.5×10^3 CFU/ml and 0.4×10^4-5×10^4 CFU/ml respectively. Plates are incubated at 35° C. for 24-72 hours in ambient air. Hygroscopene A is tested against a panel of pathogenic yeast and filamentous fungi, which consisted of Candida sp. and Aspergillus sp. The yeast and fungal strains tested are clinical isolates or were purchased from American Type Culture Collection (ATCC) (Rockville, Md.). […] The MIC values for yeast are determined after 24-48 hours of incubation. For filamentous fungi, the MIC is determined after 72 hours of incubation.

Candida pseudotropicalis = test: Broth microdilution antifungal MIC (NCCLS); type: cell-based; conditions: Candida pseudotropicalis ATCC 28838, RPMI-1640, 35° C., 24-48 hours
Description: as §1

Aspergillus niger = test: Broth microdilution antifungal MIC (NCCLS); type: cell-based; conditions: Aspergillus niger ATCC 26933, RPMI-1640, 35° C., 72 hours
Description: as §1

Candida parapsilosis = test: Broth microdilution antifungal MIC (NCCLS); type: cell-based; conditions: RPMI-1640, 35° C., 24-48 hours
Description: as §1

Candida krussii = test: Broth microdilution antifungal MIC (NCCLS); type: cell-based; conditions: Candida krussii 94-2, RPMI-1640, 35° C., 24-48 hours
Description: as §1

Candida tropicalis = test: Broth microdilution antifungal MIC (NCCLS); type: cell-based; conditions: RPMI-1640, 35° C., 24-48 hours
Description: as §1

Candida albicans = test: Broth microdilution antifungal MIC (NCCLS); type: cell-based; conditions: RPMI-1640, 35° C., 24-48 hours
Description: as §1

Candida lustitaniae = test: Broth microdilution antifungal MIC (NCCLS); type: cell-based; conditions: Candida lustitaniae 94-3, RPMI-1640, 35° C., 24-48 hours
Description: as §1

[1] = Solubility (physico-chemical properties); type: physicochemical; conditions: solvents MeOH, EtOH, DMSO
Aspergillus fumigatus = test: Broth microdilution antifungal MIC (NCCLS); type: cell-based; conditions: Aspergillus fumigatus S-430; RPMI-1640, 35° C., 72 hours
Description: as §1

Work on `C[C@@H]1[C@H](O)[C@@H](C)/C=C/C=C/C=C/C=C/C=C/C=C/C=C/[C@H](O[C@@H]2O[C@H](C)[C@@H](O)[C@H](N)[C@@H]2O)C[C@@H]2O[C@](O)(C[C@@H](O)C[C@@H](O)[C@H](O)CC[C@@H](O)C[C@@H](O)CC(=O)O[C@H]1C)C[C@H](O)[C@H]2C(=O)O` [Amphotericin B, reference compound] yielded an MIC (Candida rugosa) of 0.50 µg/mL (≈ 0.541 µM), an MIC (Candida pseudotropicalis) of 0.25 µg/mL (≈ 0.271 µM) and an MIC (Aspergillus niger) of 0.50 µg/mL (≈ 0.541 µM). The MIC (Candida parapsilosis; Candida parapsilosis 94-8) was 0.25 µg/mL (≈ 0.271 µM), the MIC (Candida parapsilosis; Candida parapsilosis 94-9) was 0.25 µg/mL (≈ 0.271 µM) and the MIC (Candida parapsilosis; Candida parapsilosis ATCC 90018) was 0.25 µg/mL (≈ 0.271 µM). The MIC (Candida krussii) was 0.50 µg/mL (≈ 0.541 µM), the MIC (Candida tropicalis; Candida tropicalis 94-13) was 0.25 µg/mL (≈ 0.271 µM) and the MIC (Candida tropicalis; Candida tropicalis 94-14) was 0.25 µg/mL (≈ 0.271 µM). For the same molecule, the MIC (Candida albicans; Candida albicans 1063) was 0.125 µg/mL (≈ 0.135 µM), the MIC (Candida albicans; Candida albicans 1117) was 0.125 µg/mL (≈ 0.135 µM) and the MIC (Candida albicans; Candida albicans ATCC 90028) was 0.25 µg/mL (≈ 0.271 µM). The MIC (Candida lustitaniae) was 0.125 µg/mL (≈ 0.135 µM).
In the case of `C\C(=C/C=C/C=C/CC/C=C/C(C)C(O)C(C)C(O)/C=C/C=C/C=C/C=C/C=C/C=C/CC(O)C(C)C(=O)CC(O)CC(O)/C=C/CC(O)CC(O)/C=C/CC(O)CC(O)CC(O)/C=C/CC(O)CC(O)CCCN)C(=O)O` (stereo not drawn) [Hygroscopene C], the Solubility [1] is reported as “Soluble in MeOH, EtOH, DMSO”.
With `C\C(=C/C=C/C=C/CC/C=C/C(C)C(O)C(C)C(O)/C=C/C=C/C=C/C=C/C=C/C=C/CC(OS(=O)(=O)O)C(C)C(=O)CC(O)CC(O)/C=C/CC(O)CC(O)/C=C/CC(O)CC(O)CC(O)/C=C/CC(O)CC(O)CCCN)C(=O)O` (stereo not drawn) [Hygroscopene B] the Solubility [1] was “Soluble in MeOH, EtOH, DMSO”.
With `C\C(=C/C=C/C=C/CC/C=C/C(C)C(O)C(C)C(O)/C=C/C=C/C=C/C=C/C=C/C=C/CC(OS(=O)(=O)O)C(C)C(=O)CC(O)CC(O)/C=C/CC(O)CC(O)/C=C/CC(O)CC(O)CC(O)/C=C/CC(O)CC(O)CCCNC(=N)N)C(=O)O` (stereo not drawn) [Hygroscopene A] the Solubility [1] was “Soluble in MeOH, EtOH, DMSO”, the MIC (Candida rugosa; Diutina rugosa, read-out: MIC) was 1 µg/mL (≈ 0.821 µM) and the MIC (Candida pseudotropicalis; Kluyveromyces marxianus, ATCC28838, read-out: MIC) was 2 µg/mL (≈ 1.64 µM). For the same molecule, the MIC (Aspergillus niger; ATCC26933, read-out: MIC) was 8 µg/mL (≈ 6.57 µM), the MIC (Candida parapsilosis; Candida parapsilosis 94-9) was 2.0 µg/mL (≈ 1.64 µM) and the MIC (Candida parapsilosis; Lodderomyces parapsilosis, ATCC90018, Candida parapsilosis ATCC 90018, read-out: MIC) was 2 µg/mL (≈ 1.64 µM). It also gave an MIC (Candida parapsilosis; Lodderomyces parapsilosis, Candida parapsilosis 94-8, read-out: MIC) of 2 µg/mL (≈ 1.64 µM), an MIC (Candida krussii; read-out: MIC) of 1 µg/mL (≈ 0.821 µM) and an MIC (Candida tropicalis; Candida tropicalis 94-13, read-out: MIC) of 1 µg/mL (≈ 0.821 µM). For the same molecule, the MIC (Candida tropicalis; Candida tropicalis 94-14) was 1.0 µg/mL (≈ 0.821 µM), the MIC (Aspergillus fumigatus) was 2 µg/mL (≈ 1.64 µM) and the MIC (Candida albicans; Candida albicans, ATCC90028, Candida albicans ATCC 90028, read-out: MIC) was 2 µg/mL (≈ 1.64 µM). The MIC (Candida albicans; Candida albicans, Candida albicans 1063, read-out: MIC) was 2 µg/mL (≈ 1.64 µM), the MIC (Candida albicans; Candida albicans, Candida albicans 1117, read-out: MIC) was 1 µg/mL (≈ 0.821 µM) and the MIC (Candida lustitaniae; read-out: MIC) was 1 µg/mL (≈ 0.821 µM).

Source: patent US20040138302A1, “Antifungal antibiotics” (Wyeth Holdings Corporation, priority 2002, published 2004)
